From paper PMC11859236, “A Sequential Ultrafiltration Method to Enhance the Accuracy and Throughput in Plasma Protein Binding Tests” (Pharmaceutics, 2025)
Counter-ions that a name gives are not always drawn. Like-named read-outs stand apart in the source and are kept apart here. Values belong to the compound of their own block, whether it stands above or below them.

Assays:
plasma proteins [1] = assay: Sequential UF, plasma protein binding; settings: for Plasma protein binding (%): Sequential UF, rat plasma, mean (±SD)
Description: (§1) Rat plasma was collected from male Sprague Dawley rats purchased from Orient Bio Inc. (Seongnam, Republic of Korea). The plasma was separated from whole blood samples using centrifugation and was utilized immediately for the PPB test.
(§2) All compounds, with the exception of otaplimastat and ciclopirox, were added to 1 mL of blank plasma to achieve a drug concentration of 10 μM. Otaplimastat and ciclopirox were examined at concentrations of 5 μM and 1 μg/mL, respectively. The compound-added plasma samples were incubated in a water bath at 37 °C and agitated at 50 rpm for two hours prior to the PPB test.
(§3) A volume of 0.5 mL of the plasma sample was initially loaded onto the filter within the FT tube. The tube was then subjected to centrifugation at 14,000× g for 2 min at a temperature of 25 °C, serving as the pre-ultrafiltration (pre-UF) step.
(§4) The bound and unbound plasma fractions were subjected to linear regression analysis, with the regression line established by constraining the y-intercept to zero [14].

plasma proteins [2] = assay: Mass balance UF, plasma protein binding; settings: for Plasma protein binding (%): Mass balance UF, rat plasma, mean (±SD)
Description: Washing procedures were performed in accordance with established methods for conventional ultrafiltration. Further procedures were conducted as per the protocols outlined by Wang and Williams. […] Following centrifugation, the filter was carefully detached from the FT tube, and the filtrate was removed. The filter was then inverted and transferred to a new retentate collection tube (RT tube), where it underwent a second centrifugation at 1000× g for 2 min at 25 °C. The retentate was subsequently extracted from the RT tube (Figure 2A).
In this equation, CR and VR represent the concentration and volume of the retentate obtained from the final RT tube, while CF and VF denote the concentration and volume of the filtrate collected from the FT tube.

[3] = cited from earlier work
Log p (lipophilicity) = type: physicochemical; settings: in-house unpublished data
Description: Table 2 Log p value of the test compounds. | column: Log p

plasma proteins [4] = settings: male, Sprague Dawley, rat, 2 h, 10 μM
Description: as §1, §2, §3, §4

plasma proteins [5] = test system: plasma proteins; parameters: method as in PMID 11709325; settings: equilibrium dialysis; cited from earlier work
plasma proteins [6] = assay: Conventional UF with NSB correction using PBS, plasma protein binding; type: in vitro ADME; settings: male, Sprague Dawley, rat plasma, conventional UF with NSB correction by PBS, mean ± SD, read-out: percentage of PPB (converted)
Description: The device used in the experiment was Amicon® Ultra, which is commonly used in UF experiments. UF was conducted following the manufacturer's user guide. Briefly, the centrifugal filter units were washed once with 0.1N NaOH and then twice with double-distilled water by centrifugation at 14,000× g for 15 min. […] The exact process was performed using phosphate-buffered saline (PBS) instead of plasma to obtain a filtrate solution for correction with PBS [13]. […] In this equation, CSB indicates the concentration of the buffer sample, while CFB signifies the concentration of the filtrate sample derived from ultrafiltration using the buffer.

plasma proteins [7] = assay: Conventional UF without NSB correction, plasma protein binding; type: in vitro ADME, rat; settings: male, Sprague Dawley
Description: The device used in the experiment was Amicon® Ultra, which is commonly used in UF experiments. UF was conducted following the manufacturer's user guide. Briefly, the centrifugal filter units were washed once with 0.1N NaOH and then twice with double-distilled water by centrifugation at 14,000× g for 15 min. […] The exact process was performed using phosphate-buffered saline (PBS) instead of plasma to obtain a filtrate solution for correction with PBS [13].

[8] = male, Sprague Dawley, rat, plasma

- fraction unbound at 2 h, 1 μg/mL (plasma proteins [1]; [8]): 0.0129
- fraction unbound at 2 h, 1 μg/mL (plasma proteins [2]; [8]): 0.0285
Compound: Cc1cc(C2CCCCC2)n(O)c(=O)c1 [Ciclopirox]
- Log p [3]: 2.73

Compound: CCc1c2c(nc3ccc(OC(=O)N4CCC(N5CCCCC5)CC4)cc13)-c1cc3c(c(=O)n1C2)COC(=O)[C@]3(O)CC [Irinotecan, irinotecan hydrochloride]
- Log p [3]: 4.18

- Log p (Log p (lipophilicity)): 2.67
- Plasma protein binding (%) (plasma proteins [1]; 5 μM): 57.61 (±3.39) %
- Plasma protein binding (%) (plasma proteins [2]; 5 μM): 50.63 (±11.71) %
Compound: CC(=O)N(CCCCNCCCn1c(=O)[nH]c2ccccc2c1=O)CCCn1c(=O)[nH]c2ccccc2c1=O [Otaplimastat]

Compound: O=c1c(O)c(-c2ccc(O)c(O)c2)oc2cc(O)cc(O)c12 [Quercetin, quercetin]
- fraction unbound at 2 h, 10 μM (plasma proteins [1]; [8]): 0.0008
- absolute difference in PPB between sequential UF and mass balance UF (plasma proteins [4]): 0.31%
- difference between CR and CF (retentate and filtrate concentration) (plasma proteins [2]; male, Sprague Dawley, rat, 2 h, 10 μM): 1000 fold
- fraction unbound at 2 h, 10 μM (plasma proteins [2]; [8]): 0.0039
- Log p [3]: 1.82

- fraction unbound at 2 h, 10 μM (plasma proteins [6]): 0.33
- fraction unbound at 2 h, 10 μM (plasma proteins [7]; rat plasma, conventional UF without NSB correction, mean ± SD, read-out: percentage of PPB (converted)): 0.103
- excess of PPB by conventional UF without NSB correction over PPB with NSB correction using PBS (plasma proteins [7]; rat, 2 h, 10 μM): 22.6%
- fraction unbound at 2 h, 10 μM (plasma proteins [1]; [8]): 0.25
- fraction unbound at 2 h, 10 μM (plasma proteins [2]; [8]): 0.3
Compound: COC(=O)c1ccccc1-c1c2ccc(=N)cc-2oc2cc(N)ccc12 [Rhodamine 123, rhodamine 123]
- protein binding, literature value (plasma proteins [5]): 70%
- Log p [3]: 1.06

Compound: CCc1c2c(nc3ccc(O)cc13)-c1cc3c(c(=O)n1C2)COC(=O)[C@]3(O)CC [SN-38]
- Plasma protein binding (%) (plasma proteins [1]; 10 μM): 95.47 (±0.88) %
- Plasma protein binding (%) (plasma proteins [2]; 10 μM): 95.69 (±1.58) %
- Log p [3]: 2.31
